Measurements from patent US6531512B1, “Method of treating cancer in patients having a deficiency in p53 tumor suppressor gene” (Health Research Inc., priority 1998, dated 2003).
Entries after “also recorded” stand apart in the source; their conditions may differ. Marks after values point to notes of the source that are not given here.

How the values were obtained:
[1] = test system: SK-MEL-28 human melanoma cells; test: Cell growth / apoptotic response of SK-MEL-28 cells (Coulter Counter, growth kinetics); assay type: cell-based; details: SK-MEL-28 (mt-p53), 10 μM, 48 hours
[2] = test system: SK-MEL-28 human melanoma cells; test: Cell cycle distribution of SK-MEL-28 cells by flow cytometry; assay type: cell-based; details: SK-MEL-28 (mt-p53), attached cells, 10 μM, 24 hours treatment (footnote)
Method: (§1) MALME-3M cells were cultured as described in Example 1 and treated with 10 μM DENSPM as described in Example 2. Cell cycle arrest was monitored using a FACScan flow cytometry unit (Becton Dickinson, San Jose, Calif.) according to the method of Krishan (1975) J. Cell Biol. 66:[…]. Untreated MALME-3M cell cultures were used as controls.
(§2) MALME-3M human melanoma cells were cultured as described in Example 1 and treated continuously with 10 μM DENSPM or 10 μM spermine (SPM) for 48 hours. SK-MEL-28 cells were also cultured as described in Example 1 and treated with 10 μM DENSPM for 24 hours. Untreated cells were used as a control.
(§3) The effect of DENSPM and spermine on cell growth was monitored using a Coulter Counter (see Example 2). The effect on cell cycle was monitored by flow cytometry as described in Example 3.

[3] = test system: SK-MEL-28 human melanoma cells; test: Cell growth / apoptotic response of SK-MEL-28 cells (Coulter Counter, growth kinetics); assay type: cell-based
Method: MALME-3M human melanoma cells containing wt-p53 (American Tissue Type Culture Collection, Bethesda, Md.) and human SK-MEL-28 cells containing mt-p53 (American Tissue Type Culture Collection, Bethesda, Md.) were cultured as a monolayer in RPMI 1640 medium containing 10% Nu-Serum (Collaborative Research Products, Bedford, Mass.), 1 mM aminoguanidine, penicillin (50 units/ml) and streptomycin (50 μg/ml) as described by Kramer et al, J. Biol. Chem., 270:2124-32 (1995) and Kramer et al., Cancer Res., 57:5521-5527 (1997).
MALME-3M cells were cultured as described in Example 1. The cells were seeded by adding 1×10^5 cells to a T-25 vented cell culture flask. After 24 hours, the asynchronous cell cultures were treated with 10 μM N^1, N^11-diethylnorspermine (DENSPM) prepared by dissolving DENSPM in distilled water and sterilizing the solution by filtration through a 0.22 micron Millipore membrane. The cells were treated by continuous exposure to DENSPM for 6 days (i.e., the polyamine was added to the cell culture at T=0 and the culture was incubated for the desired amount of time). The number of viable MALME-3M cells were monitored electronically using a Model ZM Coulter Counter (Coulter Electronics, Hialeah, Fla.). Untreated MALME-3M cell cultures were used as controls.
as §2
The effect of DENSPM and spermine on cell growth was monitored using a Coulter Counter (see Example 2). The effect on cell cycle was monitored by flow cytometry as described in Example 3. […]

[4] = test system: MALME-3M human melanoma cells; test: Polyamine pools in MALME-3M cells; assay type: cell-based; details: MALME-3M (wt-p53), 10 μM, Table 2 (24 hours treatment)
Method: as §2, with “treated” for “treated continuously”, “as described in Example 4.” for “for 48 hours.”, “as describe in Example 4.” for “for 24 hours.”
(§4) After treatment with DENSPM or spermine, biochemical parameters including polyamine enzymes activity, polyamine pools and analog accumulation were monitored as described by Kramer et al, J. Biol. Chem., 270:2124-32 (1995) and Kramer et al., Cancer Res., 57:5521-5527 (1997). Polyamine enzyme activity was monitored for ornithine […] (ODC); S-adenosylmethionine decarboxylase (SAMDC); and spermidine/spermine N^1-acetyltransferase (SSAT). Polyamine pools was monitored for putrescine (Put); spermidine (Spd); and spermine (Spm).

[5] = test system: MALME-3M human melanoma cells; test: Cell cycle distribution of MALME-3M cells by flow cytometry; assay type: cell-based
Method: as §1
Cell cycle arrest of serum synchronized MALME-3M cells was also monitored using flow cytometry. MALME-3M cells were synchronized in G0/G1 by replacing cell culture media containing 10% NuSerum (see Example 1) with media lacking NuSerum and incubating the cultures for 120 hours. The synchronized cells were released by the addition of 10% NuSerum (control culture) or 10% NuSerum plus 10 μM DENSPM. The cells were then grown continuously in the presence of serum (control) or DENSPM for up to 96 hours. The untreated cells (control) re-established an asynchronous profile (i.e., progressed through the cell cycle) by 60 hours.
as §3

[6] = test system: ornithine decarboxylate (ODC); test: Polyamine enzyme activity in treated melanoma cells: ODC; assay type: cell-based, human; details: for ODC activity: 10 μM
Method: as §2, with “treated” for “treated continuously”, “as described in Example 4.” for “for 48 hours.”, “as describe in Example 4.” for “for 24 hours.”
as §4
(§5) Enzyme activity and polyamine pools were measured as described in Example 5.

[7] = test system: SK-MEL-28 human melanoma cells; test: Polyamine pools and analog accumulation in SK-MEL-28 cells; assay type: cell-based
Method: as §2, with “treated” for “treated continuously”, “as described in Example 4.” for “for 48 hours.”, “as describe in Example 4.” for “for 24 hours.”
as §4, §5

[8] = SK-MEL-28 (mt-p53), 10 μM, Table 2, 24 hours
[9] = SK-MEL-28 cells, 24 hours, Table 4

CCNCCCNCCCNCCCNCC [DENSPM, N^1,N^11-diethylnorspermine]
% Control Growth [1]: 0%
% Total Cells, G1 [2]: 74** %
% Total Cells, G2/M [2]: 9** %
% Total Cells, S [2]: 17** %
% Growth Control [3, 8]: 26%
% Control Growth [3, 9]: 30%
cell growth and/or apoptosis response ([3]; SK-MEL-28 cells, growth kinetic analysis): massive and rapid apoptotic response; also recorded: rapid cytotoxic response
Polyamine Pools, Put [4]: 205 pmol/10^6 cells
Polyamine Pools, Spd [4]: 60 pmol/10^6 cells
Polyamine Pools, Spm [4]: 285 pmol/10^6 cells
% Total Cells at 48 hours, G1 ([5]; MALME-3M (wt-p53), asynchronous, 10 μM, 48 hours): 88%
cell cycle distribution of serum synchronized cells ([5]; MALME-3M synchronized in G0/G1, released with serum plus 10 μM, up to 96 hours): accumulated in the G1 and G2/M phases of the cycle but not in S phase
onset of G1 arrest after treatment ([5]; MALME-3M, asynchronous, 10 μM): about 16 hours
ODC activity ([6]; MALME-3M (wt-p53), Table 2 (24 hours treatment)): 30 pmol/hr/mg protein
ODC activity ([6]; SK-MEL-28 (mt-p53), Table 2, 24 hours): 5 pmol/hr/mg protein
Enzyme Activities, ODC [6, 9]: 37 pmol/hr/mg protein
Polyamine Pools, Put [7, 8]: 70 pmol/10^6 cells
Polyamine Pools, Spd [7, 8]: 20 pmol/10^6 cells
Polyamine Pools, Spm [7, 8]: 105 pmol/10^6 cells
decrease in spermine pools ([7]; SK-MEL-28 cells, 24 hours): 95%
Analog (intracellular accumulation) [7, 9]: 7710 pmol/10^6 cells
Polyamine Pools, Put [7, 9]: 115 pmol/10^6 cells
Polyamine Pools, Spd [7, 9]: 45 pmol/10^6 cells
Polyamine Pools, Spm [7, 9]: 190 pmol/10^6 cells
